7 compounds from BindingDB's records for doi:10.1016/j.bmcl.2003.11.074 (Kaohsiung Medical University, 2004) can be followed below.

One test deals with T1, Lysozyme C-1 (Rattus norvegicus, UniProt P00697).
T1 sequence (P00697 whole entry): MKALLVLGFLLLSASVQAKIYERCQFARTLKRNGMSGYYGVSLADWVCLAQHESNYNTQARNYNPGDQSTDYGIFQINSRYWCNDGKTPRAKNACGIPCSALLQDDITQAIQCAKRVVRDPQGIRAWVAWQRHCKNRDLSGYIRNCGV
The test is described as follows: ChEBML_100187. An excerpt:
Inhibitory effect of compound on the release of lysozyme in rat neutrophils stimulated with fMLP/CB

The nature of test [1]: Inhibitory effect of compound on the release of Beta-glucuronidase in rat neutrophils stimulated with fMLP/CB.

A word on the IC50: it is the point on the concentration scale where inhibition reaches its midpoint. Read a high IC50 as a need for much substance.

As to `CN1CCN(CCCN2c3ccccc3Sc3ccc(C(F)(F)F)cc32)CC1`, on Lysozyme C-1, the IC50 was 9 µM.

Regarding `COc1cc(O)ccc1-c1coc2cc(O)cc(O)c2c1=O` [5,7-Dihydroxy-3-(4-hydroxy-2-methoxy-phenyl)-chromen-4-one], the IC50 (on Lysozyme C-1; in test [1]) was more than 30 µM throughout.

In turn, `O=c1cc(-c2ccc(O)cc2)oc2cc(O)ccc12` [7-hydroxy-2-(4-hydroxyphenyl)-4H-chromen-4-one] yielded an IC50 against Lysozyme C-1 of more than 30 µM.

Compound `O=c1c(-c2ccc(O)cc2O)coc2cc(O)cc(O)c12` [3-(2,4-Dihydroxy-phenyl)-5,7-dihydroxy-chromen-4-one] yielded an IC50 against Lysozyme C-1 of 9.7 µM.

On to `O=c1cc(-c2ccc(O)cc2)oc2cc(O)cc(O)c12` [Naringenin, 18], for which the IC50 on Lysozyme C-1 turned out to be 17.7 µM.

For `C[C@](O)(CO)c1cc2c3c(ccc2o1)[C@@H]1COc2cc(O)ccc2[C@@H]1O3` [2-((11bR,12R)-9-Hydroxy-5b,11b-dihydro-6H-3,7,12-trioxa-benzo[a]cyclopenta[i]fluoren-2-yl)-propane-1,2-diol], the 50% inhibitory concentration (IC50) (against Lysozyme C-1; in test [1]) was more than 30 µM throughout.

In the case of `O=c1c(O)c(-c2ccc(O)cc2)oc2cc(OC3O[C@H](CO)[C@@H](O)[C@H](O)[C@H]3O)cc(O)c12` (stereo not given in full), the IC50 (on Lysozyme C-1; in test [1]) was more than 30 µM in each case.
